What is called EC50 is the midpoint of the concentration-response curve.

Where two headings read alike, the source gives them in different places. Some results are limits rather than exact numbers.

The target of data set [1] is α5β3γ2 GABAA subtype receptor (Homo sapiens, UniProt P18507+P31644). Nature of the data set: cell-based. As to conditions: for Emax: read-out: oocyte electrophysiology maximum potentiation α5β3γ2. From the text: (§1) The in vitro efficacy and EC50 value of the test compound may be determined by measuring the chloride flux at the surface of a cell expressing the α,β, and γ subunits of the GABAA receptor in response to GABA by the two electrode voltage-clamp technique. While a variety of cells are suitable for use herein, the preferred cells used in this technique are Xenopus laevis oocytes that have been injected with non-polyadenylated CRNA coding for human derived α, βand γ GABAA subunits. The preferred form of the γ subunit is the normally expressed long form although an alternatively spliced form may be used.
α5β3γ2 GABAA subtype receptor, sequence (P31644 32-462): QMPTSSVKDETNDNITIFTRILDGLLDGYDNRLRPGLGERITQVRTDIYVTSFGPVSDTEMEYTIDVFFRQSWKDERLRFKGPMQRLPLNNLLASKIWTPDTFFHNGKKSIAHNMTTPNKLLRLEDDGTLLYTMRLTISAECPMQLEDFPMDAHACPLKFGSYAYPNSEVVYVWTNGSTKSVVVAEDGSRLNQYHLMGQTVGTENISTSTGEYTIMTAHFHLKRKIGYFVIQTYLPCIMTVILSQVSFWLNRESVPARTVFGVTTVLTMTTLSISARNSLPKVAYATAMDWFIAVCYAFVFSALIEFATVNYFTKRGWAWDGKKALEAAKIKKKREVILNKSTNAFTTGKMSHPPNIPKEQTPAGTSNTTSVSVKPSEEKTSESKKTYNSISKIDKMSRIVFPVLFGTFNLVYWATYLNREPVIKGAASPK
α5β3γ2 GABAA subtype receptor, sequence (P28472 26-473 partner): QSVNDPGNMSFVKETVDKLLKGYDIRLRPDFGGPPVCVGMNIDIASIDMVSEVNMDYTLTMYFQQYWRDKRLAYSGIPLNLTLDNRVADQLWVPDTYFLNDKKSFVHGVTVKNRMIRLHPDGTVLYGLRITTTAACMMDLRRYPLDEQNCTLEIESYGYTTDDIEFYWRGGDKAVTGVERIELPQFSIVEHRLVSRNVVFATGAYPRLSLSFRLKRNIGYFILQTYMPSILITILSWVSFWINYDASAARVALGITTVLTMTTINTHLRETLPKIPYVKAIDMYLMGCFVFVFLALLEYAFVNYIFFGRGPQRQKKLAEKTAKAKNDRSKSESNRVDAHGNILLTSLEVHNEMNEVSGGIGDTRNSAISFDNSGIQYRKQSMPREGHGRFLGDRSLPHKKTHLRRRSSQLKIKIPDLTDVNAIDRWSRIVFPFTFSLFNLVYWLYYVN
α5β3γ2 GABAA subtype receptor, sequence (P18507 40-475): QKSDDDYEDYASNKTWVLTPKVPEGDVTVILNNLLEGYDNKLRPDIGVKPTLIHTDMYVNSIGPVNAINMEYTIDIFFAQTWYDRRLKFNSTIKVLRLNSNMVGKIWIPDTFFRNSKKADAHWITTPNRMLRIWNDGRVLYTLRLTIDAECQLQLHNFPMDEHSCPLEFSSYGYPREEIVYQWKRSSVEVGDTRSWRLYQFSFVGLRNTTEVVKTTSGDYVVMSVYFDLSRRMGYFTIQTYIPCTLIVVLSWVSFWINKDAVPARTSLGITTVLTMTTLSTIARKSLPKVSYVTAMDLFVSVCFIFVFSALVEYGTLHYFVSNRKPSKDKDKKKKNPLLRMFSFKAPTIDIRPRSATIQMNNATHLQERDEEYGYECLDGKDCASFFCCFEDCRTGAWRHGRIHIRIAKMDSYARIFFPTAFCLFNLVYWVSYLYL
(§2) Assays are carried out as described previously in White and Gurley, 1995 and White, et al., 1995. Xenopus laevis oocytes are enzymatically isolated and injected with non-polyadenylated cRNA for human derived α, β and γ GABAA subunits, respectively. In more preferred embodiments cRNA for the α1β2γ2, α2β3γ2, α3β3γ2, and α5β3γ2 subunit combinations are injected. Only one of these subunit combinations is injected per cell. For each subunit combination, sufficient message is injected to result in current amplitudes of >10 nA when 1 μM GABA is applied. Electrophysiological recordings are carried out using the two electrode voltage-clamp technique at a membrane holding potential of −70 mV.
(§3) Compounds are evaluated against a GABA concentration that evokes <10% (EC10) of the maximal evocable GABA current. Each oocyte is exposed to increasing concentrations of compound in order to evaluate a concentration/effect relationship.
(§4) Specificity of a compound for the Ro15-1788 site is determined following completion of the concentration/effect curve. After washing the oocyte sufficiently to remove previously applied compound, the oocyte is exposed to GABA and 1 μM Ro15-1788, followed by exposure to GABA, 1 μM Ro15-1788, and compound. Percent change due to addition of compound is calculated as described above. Any percent change observed in the presence of Ro15-1788 is subtracted from the percent changes in current amplitude observed in the absence of 1 μM Ro15-1788. These net values are used for the calculation of average activity and EC50 values.
(§5) To evaluate average activity and EC50 values, the concentration/effect data are averaged across cells and fit to the logistic equation. Average values are reported as mean±standard error.

The target in data set [2] is α2β3γ2 GABAA subtype receptor (Homo sapiens, UniProt P18507+P47869). Nature of the data set: cell-based. As to conditions: for oocyte electrophysiology maximum potentiation α2β3γ2 / EC50: human subunits, GABA at EC10; for oocyte electrophysiology maximum potentiation α2β3γ2: negative = inverse agonism; for Emax: read-out: oocyte electrophysiology maximum potentiation α2β3γ2.
α2β3γ2 GABAA subtype receptor, sequence (P47869 29-451): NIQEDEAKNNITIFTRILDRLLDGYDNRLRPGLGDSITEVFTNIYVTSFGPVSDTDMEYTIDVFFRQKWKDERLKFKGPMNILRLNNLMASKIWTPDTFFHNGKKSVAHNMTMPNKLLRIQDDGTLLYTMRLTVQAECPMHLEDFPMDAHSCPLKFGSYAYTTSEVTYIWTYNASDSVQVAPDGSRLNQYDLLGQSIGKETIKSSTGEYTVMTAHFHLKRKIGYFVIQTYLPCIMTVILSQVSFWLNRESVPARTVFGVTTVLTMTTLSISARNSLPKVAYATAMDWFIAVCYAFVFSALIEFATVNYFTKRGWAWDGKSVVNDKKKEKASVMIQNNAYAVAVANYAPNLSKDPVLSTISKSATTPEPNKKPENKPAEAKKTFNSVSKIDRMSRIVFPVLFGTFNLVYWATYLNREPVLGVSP
α2β3γ2 GABAA subtype receptor, sequence (P28472 26-473 partner): as the sequence (P28472 26-473 partner) above
α2β3γ2 GABAA subtype receptor, sequence (P18507 40-475): as the sequence (P18507 40-475) above
Text: as §1, §2, §3, §4, §5

Data set [3] addresses α3β3γ2 GABAA subtype receptor (Homo sapiens, UniProt P18507+P34903). Nature of the data set: cell-based. As to conditions: for oocyte electrophysiology maximum potentiation α3β3γ2 / EC50: human subunits, GABA at EC10; for oocyte electrophysiology maximum potentiation α3β3γ2: negative = inverse agonism; for Emax: read-out: oocyte electrophysiology maximum potentiation α3β3γ2.
Text: as §1, §2, §3, §4, §5

Data set [4] has as its target α1β2γ2 GABAA subtype receptor (Homo sapiens, UniProt P14867+P18507). Nature of the data set: cell-based. To be noted: for oocyte electrophysiology maximum potentiation α1β2γ2 / EC50: human subunits, GABA at EC10; for oocyte electrophysiology maximum potentiation α1β2γ2: negative = inverse agonism.
Text: as §1, §2, §3, §4, §5

Data set [5] concerns rats. Briefly: step-down passive avoidance. It counts as in vivo. To be noted: rat; cognitive impairment side effect (Table VII); NS = no statistically significant effect over dose range. From the text: (§6) A statistically significant effect in the spatial water maze, step-down passive avoidance, spontaneous locomotor activity, Porsolt swim test, or the elevated plus maze models is defined as p<0.05 using a valid parametric statistical test. Likewise, no statistically significant effect is defined in these models as p>0.05 using a valid parametric statistical test. No statistically significant effect for either of the seizure threshold models is defined as a decrease of less than 25% in the seizure threshold in the presence of a seizure inducing drug or a result that is not significant at the p<0.05 level.
In step-down passive avoidance a rat is placed on a platform located in the center of an electrified grid floor that is contained within a large (45 cm×45 cm×50 cm) white translucent Plexiglas® enclosure. The natural inclination of the rat is to step off the platform and investigate its surroundings. […] Each time the animal steps off the platform it receives a mild foot shock of 2 mAmps×6 sec. Following each shock the animal is removed from the box, placed in its cage for a one minute inter-trial interval, and then returned to the platform. The latency to step down on each trial, the number of trials taken to reach criterion during training and the retention latency are collected.
Testing is conducted approximately 24 hrs. after training. Drug-free animals are placed on the platform in the box in which they will have been trained and the latency to step down onto the grid floor is recorded for one trial as a measure of memory retention.

Data set [6] has as its system rats. Briefly: Porsolt forced swim test. To be noted: rat, administered IV; antidepressant effect. Format: in vivo.
Text: as §6
The effects measured in this model have been correlated to antidepressant efficacy for drugs. The paradigm of this model is that an effective antidepressant compound will cause a rat to make greater attempts to escape a water-filled cylinder than a rat given vehicle only.
Animals used in this study were non-naive male Sprague Dawley Rats (SASCO, St. Louis) weighing between 280-350 grams. The test apparatus consists of 6 clear Plexiglas cylinders 40 cm high×19 cm wide. Cylinders are filled to 18 cm with 25° C. water. Each rat is placed in a cylinder for a 15 minute training session. Following either subchronic or acute dosing of either vehicle (0.5% methylcellulose) of compound, animals are brought back 24 hours later for a 5 minute test session. These test session is videotaped for later scoring.
Subchronic dosing consists of administering drug three times in the 24-hour period between training and testing. The drug is administered 24 hrs., 5 hrs., and 1 hr. prior to the test session. Acute dosing consists of administering the drug once, 1 hour prior to the test session. Scoring is done using a time-sampling computer program written in Visual Basic and run in DOS. […] These sampling score are then converted into percentages of the test session.

Setting [7] is: oocyte electrophysiology EC50 α5β3γ2, Xenopus laevis oocytes, human subunits, GABA at EC10.
The mark [8] stands for this setting: oocyte electrophysiology EC50 α2β3γ2, Xenopus laevis oocytes.
The mark [9] stands for this setting: oocyte electrophysiology EC50 α3β3γ2, Xenopus laevis oocytes.
The mark [10] stands for this setting: oocyte electrophysiology EC50 α1β2γ2, Xenopus laevis oocytes.
Setting [11] is: Xenopus laevis oocytes, human subunits, GABA at EC10, read-out: oocyte electrophysiology EC50 α5β3γ2.
Where [12] appears, read: Xenopus laevis oocytes, read-out: oocyte electrophysiology EC50 α3β3γ2.
Setting [13] is: Xenopus laevis oocytes, read-out: oocyte electrophysiology EC50 α2β3γ2.
Setting [14] is: Xenopus laevis oocytes, read-out: oocyte electrophysiology EC50 α1β2γ2.

α1β2γ2 GABAA subtype receptor, sequence (P14867 28-456): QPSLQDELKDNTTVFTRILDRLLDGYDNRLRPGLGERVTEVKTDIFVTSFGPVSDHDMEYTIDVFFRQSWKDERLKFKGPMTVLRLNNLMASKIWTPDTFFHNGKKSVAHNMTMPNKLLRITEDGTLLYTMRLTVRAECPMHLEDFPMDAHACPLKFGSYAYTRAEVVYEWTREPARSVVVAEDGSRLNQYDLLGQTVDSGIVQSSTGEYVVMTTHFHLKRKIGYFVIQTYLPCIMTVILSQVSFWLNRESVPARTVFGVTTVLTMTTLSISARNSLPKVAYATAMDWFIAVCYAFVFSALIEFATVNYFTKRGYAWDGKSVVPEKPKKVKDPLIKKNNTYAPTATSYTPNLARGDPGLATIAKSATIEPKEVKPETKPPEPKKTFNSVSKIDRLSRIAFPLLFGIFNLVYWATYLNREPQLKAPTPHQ
α1β2γ2 GABAA subtype receptor, sequence (P47870 25-512 partner limits assumed): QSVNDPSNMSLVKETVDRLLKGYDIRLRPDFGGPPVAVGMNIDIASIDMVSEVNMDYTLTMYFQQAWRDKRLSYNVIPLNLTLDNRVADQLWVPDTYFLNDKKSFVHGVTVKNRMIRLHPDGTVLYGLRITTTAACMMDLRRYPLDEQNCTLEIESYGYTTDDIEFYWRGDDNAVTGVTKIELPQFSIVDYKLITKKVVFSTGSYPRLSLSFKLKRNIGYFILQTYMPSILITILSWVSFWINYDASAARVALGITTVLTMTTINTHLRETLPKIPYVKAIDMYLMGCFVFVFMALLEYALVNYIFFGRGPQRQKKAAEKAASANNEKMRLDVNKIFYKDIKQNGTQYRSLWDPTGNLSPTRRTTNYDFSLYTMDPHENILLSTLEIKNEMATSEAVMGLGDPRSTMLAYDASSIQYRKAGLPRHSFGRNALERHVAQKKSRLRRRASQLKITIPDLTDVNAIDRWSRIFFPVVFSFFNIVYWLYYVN
α1β2γ2 GABAA subtype receptor, sequence (P18507 40-475): as the sequence (P18507 40-475) above
α3β3γ2 GABAA subtype receptor, sequence (P34903 29-492): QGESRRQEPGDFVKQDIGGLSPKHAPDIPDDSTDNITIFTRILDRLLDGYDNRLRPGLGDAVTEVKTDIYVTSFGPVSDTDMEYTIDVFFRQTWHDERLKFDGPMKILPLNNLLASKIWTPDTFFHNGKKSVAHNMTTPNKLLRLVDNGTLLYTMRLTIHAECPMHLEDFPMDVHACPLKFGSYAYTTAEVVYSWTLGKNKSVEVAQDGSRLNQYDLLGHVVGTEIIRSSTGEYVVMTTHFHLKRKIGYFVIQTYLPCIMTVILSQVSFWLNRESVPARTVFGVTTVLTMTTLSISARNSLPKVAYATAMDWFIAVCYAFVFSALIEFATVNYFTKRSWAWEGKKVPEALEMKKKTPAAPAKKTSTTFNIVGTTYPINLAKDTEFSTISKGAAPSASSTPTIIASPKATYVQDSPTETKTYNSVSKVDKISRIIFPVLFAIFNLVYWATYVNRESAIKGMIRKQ
α3β3γ2 GABAA subtype receptor, sequence (P28472 26-473 partner): as the sequence (P28472 26-473 partner) above
α3β3γ2 GABAA subtype receptor, sequence (P18507 40-475): as the sequence (P18507 40-475) above

In the case of `CC1CC(=O)c2c(C(=O)Nc3ccc(F)cc3)c[nH]c2C1` (stereo not drawn) [compound 8], the “oocyte electrophysiology maximum potentiation α5β3γ2” value in data set [1] (Xenopus laevis oocytes, human subunits, GABA at EC10, negative = inverse agonism) came to 16%. Moreover, the EC50 in data set [1] (setting [7]) was found to be 0.04 µM; in data set [2] (setting [8]) it was 39 nM; in data set [3] (setting [9]) it was 37 nM; in data set [4] (setting [10]) it was 14 nM. Further, the “oocyte electrophysiology maximum potentiation α2β3γ2” value in data set [2] (Xenopus laevis oocytes) is listed as 42%. For the same compound, in data set [3] (Xenopus laevis oocytes), the “oocyte electrophysiology maximum potentiation α3β3γ2” value is reported as 61%. Also, the “oocyte electrophysiology maximum potentiation α1β2γ2” value in data set [4] (Xenopus laevis oocytes) amounted to 17%.
As to `COc1ccc(NC(=O)c2c[nH]c3c2C(=O)CC(C)(C)C3)c(F)c1` [compound 6], the “step-down passive avoidance, minimal efficacious dose” value (“step-down passive avoidance” for short) in the data set on rats [5] was found to be 4 mg/kg. The EC50 was 0.108 µM in data set [1] (setting [11]), 28 nM in data set [2] (setting [8]), 33 nM in data set [3] (setting [9]) and 44 nM in data set [4] (setting [10]). Moreover, the Emax worked out at 42% in data set [1] and 25% in data set [4] (read-out: oocyte electrophysiology maximum potentiation α1β2γ2). Further, the “oocyte electrophysiology maximum potentiation α2β3γ2” value in data set [2] (Xenopus laevis oocytes) turned out to be 72%. Moreover, in data set [3] (Xenopus laevis oocytes), the “oocyte electrophysiology maximum potentiation α3β3γ2” value turned out to be 95%.
With `O=C(Nc1ccccc1)c1c[nH]c2c1C(=O)CCCC2` [compound 13], the EC50 came to 0.023 µM in data set [1] (setting [7]), 53 nM in data set [2] (setting [8]), 36 nM in data set [3] (setting [9]) and 3 nM in data set [4] (setting [10]).
Consider `Cc1nnc2n1-c1ccc(Cl)cc1C(c1ccccc1)=NC2` [Alprazolam, reference compound], for which the EC50 is 0.01 µM in data set [1] (setting [7]), 12 nM in data set [2] (setting [8]), 69 nM in data set [3] (setting [9]) and 37 nM in data set [4] (setting [10]).
On to `O=C(Nc1cccc(F)c1)c1c[nH]c2c(c1=O)CCC2` [compound 5], for which the “oocyte electrophysiology maximum potentiation α2β3γ2” value in data set [2] (Xenopus laevis oocytes) came out at 44%. Besides, the concentration giving a half-maximal response (EC50) was 9 nM in data set [2] (setting [8]) and 21 nM in data set [3] (setting [9]).
As to `O=C(Nc1ccc(OCCO)cc1)c1c[nH]c2c1C(=O)CCC2` [compound 12], the 50% effective concentration (EC50) in data set [1] (setting [7]) was found to be 0.019 µM; in data set [2] (setting [8]) it was 11 nM; in data set [3] (setting [9]), 18 nM; in data set [4] (setting [10]) it was 18 nM. The “oocyte electrophysiology maximum potentiation α1β2γ2” value in data set [4] (Xenopus laevis oocytes) amounted to 15%.
On to `COc1ccc(F)c(-c2ncc3[nH]c4c(c3n2)CCCC4)c1` [compound 11], for which the EC50 in data set [1] (setting [11]) is 0.847 µM; in data set [2] (setting [8]), 96 nM; in data set [3] (setting [12]), 177 nM; in data set [4] (setting [10]), 21 nM.
Consider `CNCc1ccc(NC(=O)c2c[nH]c3c2C(=O)CCCC3)cc1` [compound 4], for which the “Porsolt swim test, minimal efficacious dose” value in the data set with rats [6] is recorded as 20 mg/kg. Besides, the EC50 worked out at 0.186 µM in data set [1] (setting [11]); 108 nM in data set [2] (setting [13]); 19 nM in data set [2] (setting [8]); 133 nM in data set [3] (setting [12]); 51 nM in data set [3] (setting [9]); 107 nM in data set [4] (setting [14]). The EC50 in data set [4] (setting [10]) amounted to 48 nM. Moreover, the “oocyte electrophysiology maximum potentiation α2β3γ2” value in data set [2] (Xenopus laevis oocytes) turned out to be 66%. In data set [4] (Xenopus laevis oocytes), the “oocyte electrophysiology maximum potentiation α1β2γ2” value is 23%.
Turning to `c1cc2c(cc1-c1ncc3[nH]c4c(c3n1)CCCC4)OCO2` [compound 9], the “step-down passive avoidance” value with rats [5] is 0.5 mg/kg. The EC50 in data set [2] (setting [13]) came to 184 nM; in data set [3] (setting [12]), 331 nM; in data set [4] (setting [10]), 74 nM. The Emax is 53% in data set [2] and 23% in data set [3]. For the same compound, the “oocyte electrophysiology maximum potentiation α1β2γ2” value in data set [4] (Xenopus laevis oocytes) is listed as 33%.
Consider `O=c1c(-c2ccccc2F)nc2c[nH]c3ccccc3n1-2` [compound 2], for which the EC50 in data set [1] (setting [7]) stood at 0.036 µM; in data set [2] (setting [8]), 12 nM; in data set [3] (setting [9]) it was 23 nM; in data set [4] (setting [10]), 33 nM. Besides, the “oocyte electrophysiology maximum potentiation α2β3γ2” value in data set [2] (Xenopus laevis oocytes) was 40%. In addition, in data set [4] (Xenopus laevis oocytes), the “oocyte electrophysiology maximum potentiation α1β2γ2” value worked out at 18%.
As for `O=c1c2c[nH]c3ccccc3n-2c(=O)n1-c1ccc(F)cc1` [compound 10], the EC50 in data set [1] (setting [7]) amounted to 0.081 µM; in data set [2] (setting [8]), 31 nM; in data set [3] (setting [9]), 46 nM.
For `O=c1[nH]c2c(n1-c1nc3ccc(F)c(F)c3o1)CCCCC2` [compound 7], the EC50 came to 0.174 µM in data set [1] (setting [11]), 4 nM in data set [2] (setting [8]), 9 nM in data set [3] (setting [9]) and 5 nM in data set [4] (setting [10]). Besides, the “oocyte electrophysiology maximum potentiation α2β3γ2” value in data set [2] (Xenopus laevis oocytes) is reported as 51%. Besides, the “oocyte electrophysiology maximum potentiation α3β3γ2” value in data set [3] (Xenopus laevis oocytes) is on record as 83%. For the same compound, in data set [4] (Xenopus laevis oocytes), the “oocyte electrophysiology maximum potentiation α1β2γ2” value came out at 18%.
For the compound `Cc1ccc(-c2nc3ccc(C)cn3c2CC(=O)N(C)C)cc1` [Zolpidem, reference compound], the “step-down passive avoidance” value with rats [5] was found to be 0.5 mg/kg. Further, the EC50 in data set [1] (oocyte electrophysiology EC50 α5β3γ2, Xenopus laevis oocytes, human subunits, μM) was more than 3 µM. Further, the Emax in data set [1] is less than 20%; in data set [2] it was 350%; in data set [3] it was 882%.
Consider `CCOc1ccc(-n2c(=O)c3c[nH]c4ccccc4n-3c2=O)cc1` [compound 1], for which the “Porsolt swim test, minimal efficacious dose” value in the data set on rats [6] amounted to 20 mg/kg. The “oocyte electrophysiology maximum potentiation α2β3γ2” value in data set [2] (Xenopus laevis oocytes) was determined as 71%. Besides, the EC50 in data set [2] (setting [13]) was determined as 114 nM; in data set [2] (setting [8]) it was 20 nM; in data set [3] (setting [12]), 144 nM; in data set [3] (setting [9]), 35 nM; in data set [4] (setting [14]) it was 159 nM; in data set [4] (setting [10]), 6 nM. Besides, the “oocyte electrophysiology maximum potentiation α1β2γ2” value in data set [4] (Xenopus laevis oocytes) came out at 12%.

(Values after US20020115611A1, “Methods for screening GABA-modulatory compounds for specified pharmacological activities” (priority 1999, published 2002).)
